Assays:
Assay type in all cases: physicochemical
[1] = DVS (Dynamic Vapor Sorption) moisture sorption/desorption, hygroscopicity classification
Procedure: DVS (Dynamic Vapor Sorption): Around 10-20 mg of samples were used to test its moisture sorption/desorption profiles at 25° C. under 0%˜95%˜0% relative humidity (RH) cycle using dm/dt: 0.01%/min equilibrium and a measurement step of 5% RH.
Hygroscopicity Classification: Typical %-moisture gain as a function of increased RH was determined by DVS. Samples went through a dynamic test isothermally at 25° C. The test was divided into 2 processes, one was absorption process, the other was desorption process. RH ranged from 0% to 95% with 5% RH for each step, and when dm/dt<=0.01%, it was assumed the water sorption/desorption equilibrium is reached.

[2] = Solubility in SGF, FaSSIF, FeSSIF, 0.1M HCl, pH 4.5 and pH 6.8 aqueous at 25° C. (HPLC); details: for Solubility conc.(mg/ml): solubility of salts transformed to freebase; for Final pH: solubility test
Procedure: Solubility: Excess drug substance was equilibrated with SGF (Simulated Gastric Fluid), FaSSIF (Simulated Small Intestinal Fluid under Fasted state), FeSSIF (Simulated Small Intestinal Fluid under Fed state), 0.1M HCl, pH 4.5 aqueous, and pH 6.8 aqueous at 25° C. After stirring for 20˜24 h, each sample was filtered, diluted appropriately and analyzed by HPLC. The experiment was terminated once a solubility target of 5 mg/mL was reached.

[3] = Solution stability in 0.1 N HCl, pH 4.5 buffer and pH 6.8 buffer at 25° C. and 37° C., HPLC
Procedure: Solution stability: A stock solution of compound (1.0 mg/mL) in MeOH was diluted with 0.1 N HCl, pH 4.5 buffer (acetate) and pH 6.8 buffer to reach constant ionic strength of 0.15 M and the same final concentration (50 μg/mL, 40% MeOH).
A stock solution of 1b and 3b (1.0 mg/mL) in MeOH was diluted with pH 6.8 buffer to reach constant ionic strength of 0.15M and the same final concentration (25 μg/mL, 40% […]).
The solutions were stored at 25° C. and 37° C.

[4] = Solid stability at 40° C./0% RH (closed) and 40° C./75% RH (open), HPLC; details: for 0 day % remaining / 7 day % remaining / 21 day % remaining: solid
Procedure: (§1) Solid stability: 5 mg of 2a was weighed into scintillation vials sealed properly and stored at 40° C./0% RH(closed), 40° C./75% RH(open) under dark conditions to avoid the effect of light on stability. Samples were collected at day 0, 5 and 10 and analyzed by HPLC.
Solid stability: 5 mg of compound was weighed into vials sealed properly and stored at 40° C./0% RH (closed), 40° C./75% RH (open) under dark conditions to avoid the effect of light. Samples were analyzed by HPLC at days 0, 7, and 21.
as §1, with “stability of compound 1a:” for “stability:”, “compound were accurately” for “of 2a was”, “condition” for “conditions”, “should be” for “were”, “10 days” for “10”

Hygroscopicity classification by DVS ([1]; 25 °C): hygroscopic | Change In Mass (%) - ref, Desorption ([1]; Cycle 1, target RH 0.0%): 0.05% | Change In Mass (%) - ref, Sorption ([1]; Cycle 1, target RH 0.0%): 0.00% | Change In Mass (%) - ref, Desorption ([1]; Cycle 1, target RH 5.0%): 0.26% | Change In Mass (%) - ref, Hysteresis ([1]; Cycle 1, target RH 5.0%): 0.23% | Change In Mass (%) - ref, Sorption ([1]; Cycle 1, target RH 5.0%): 0.03% | Change In Mass (%) - ref, Desorption ([1]; Cycle 1, target RH 10.0%): 0.46% | Change In Mass (%) - ref, Hysteresis ([1]; Cycle 1, target RH 10.0%): 0.18% | Change In Mass (%) - ref, Sorption ([1]; Cycle 1, target RH 10.0%): 0.28% | Change In Mass (%) - ref, Desorption ([1]; Cycle 1, target RH 15.0%): 0.61% | Change In Mass (%) - ref, Hysteresis ([1]; Cycle 1, target RH 15.0%): 0.29% | Change In Mass (%) - ref, Sorption ([1]; Cycle 1, target RH 15.0%): 0.32% | Change In Mass (%) - ref, Desorption ([1]; Cycle 1, target RH 20.0%): 4.13% | Change In Mass (%) - ref, Hysteresis ([1]; Cycle 1, target RH 20.0%): 3.79% | Change In Mass (%) - ref, Sorption ([1]; Cycle 1, target RH 20.0%): 0.34% | Change In Mass (%) - ref, Desorption ([1]; Cycle 1, target RH 25.0%): 8.89% | Change In Mass (%) - ref, Hysteresis ([1]; Cycle 1, target RH 25.0%): 8.50% | Change In Mass (%) - ref, Sorption ([1]; Cycle 1, target RH 25.0%): 0.39% | Change In Mass (%) - ref, Desorption ([1]; Cycle 1, target RH 30.0%): 9.08% | Change In Mass (%) - ref, Hysteresis ([1]; Cycle 1, target RH 30.0%): 1.62% | Change In Mass (%) - ref, Sorption ([1]; Cycle 1, target RH 30.0%): 7.46% | Change In Mass (%) - ref, Desorption ([1]; Cycle 1, target RH 35.0%): 9.14% | Change In Mass (%) - ref, Hysteresis ([1]; Cycle 1, target RH 35.0%): 0.21% | Change In Mass (%) - ref, Sorption ([1]; Cycle 1, target RH 35.0%): 8.93% | Change In Mass (%) - ref, Desorption ([1]; Cycle 1, target RH 40.0%): 9.18% | Change In Mass (%) - ref, Hysteresis ([1]; Cycle 1, target RH 40.0%): 0.13% | Change In Mass (%) - ref, Sorption ([1]; Cycle 1, target RH 40.0%): 9.06% | Change In Mass (%) - ref, Desorption ([1]; Cycle 1, target RH 45.0%): 9.26% | Change In Mass (%) - ref, Hysteresis ([1]; Cycle 1, target RH 45.0%): 0.16% | Change In Mass (%) - ref, Sorption ([1]; Cycle 1, target RH 45.0%): 9.10% | Change In Mass (%) - ref, Desorption ([1]; Cycle 1, target RH 50.0%): 10.73% | Change In Mass (%) - ref, Hysteresis ([1]; Cycle 1, target RH 50.0%): 1.59% | Change In Mass (%) - ref, Sorption ([1]; Cycle 1, target RH 50.0%): 9.14% | Change In Mass (%) - ref, Desorption ([1]; Cycle 1, target RH 55.0%): 10.99% | Change In Mass (%) - ref, Hysteresis ([1]; Cycle 1, target RH 55.0%): 1.77% | Change In Mass (%) - ref, Sorption ([1]; Cycle 1, target RH 55.0%): 9.22% | Change In Mass (%) - ref, Desorption ([1]; Cycle 1, target RH 60.0%): 11.23% | Change In Mass (%) - ref, Hysteresis ([1]; Cycle 1, target RH 60.0%): 1.82% | Change In Mass (%) - ref, Sorption ([1]; Cycle 1, target RH 60.0%): 9.41% | Change In Mass (%) - ref, Desorption ([1]; Cycle 1, target RH 65.0%): 11.50% | Change In Mass (%) - ref, Hysteresis ([1]; Cycle 1, target RH 65.0%): 0.36% | Change In Mass (%) - ref, Sorption ([1]; Cycle 1, target RH 65.0%): 11.14% | Change In Mass (%) - ref, Desorption ([1]; Cycle 1, target RH 70.0%): 11.84% | Change In Mass (%) - ref, Hysteresis ([1]; Cycle 1, target RH 70.0%): 0.04% | Change In Mass (%) - ref, Sorption ([1]; Cycle 1, target RH 70.0%): 11.79% | Change In Mass (%) - ref, Desorption ([1]; Cycle 1, target RH 75.0%): 12.27% | Change In Mass (%) - ref, Hysteresis ([1]; Cycle 1, target RH 75.0%): 0.04% | Change In Mass (%) - ref, Sorption ([1]; Cycle 1, target RH 75.0%): 12.23% | Change In Mass (%) - ref, Desorption ([1]; Cycle 1, target RH 80.0%): 12.85% | Change In Mass (%) - ref, Hysteresis ([1]; Cycle 1, target RH 80.0%): 0.05% | Change In Mass (%) - ref, Sorption ([1]; Cycle 1, target RH 80.0%): 12.79% | Change In Mass (%) - ref, Desorption ([1]; Cycle 1, target RH 85.0%): 13.71% | Change In Mass (%) - ref, Hysteresis ([1]; Cycle 1, target RH 85.0%): 0.08% | Change In Mass (%) - ref, Sorption ([1]; Cycle 1, target RH 85.0%): 13.64% | Change In Mass (%) - ref, Desorption ([1]; Cycle 1, target RH 90.0%): 15.23% | Change In Mass (%) - ref, Hysteresis ([1]; Cycle 1, target RH 90.0%): 0.15% | Change In Mass (%) - ref, Sorption ([1]; Cycle 1, target RH 90.0%): 15.08% | Change In Mass (%) - ref, Desorption ([1]; Cycle 1, target RH 95.0%): 17.97% | Change In Mass (%) - ref, Sorption ([1]; Cycle 1, target RH 95.0%): 17.97% | moisture picked up (DVS) ([1]; at 80% RH, 25 °C): ~13% | moisture picked up (DVS) ([1]; at 95% RH, 25 °C): ~18% | Solubility conc.(mg/ml) ([2]; 0.1N HCL): 0.261 mg/mL | Solubility conc.(mg/ml) ([2]; FaSSIF): 0.009 mg/mL | Solubility conc.(mg/ml) ([2]; FeSSIF): 0.010 mg/mL | Solubility conc.(mg/ml) ([2]; SGF): 1.828 mg/mL | Solubility conc.(mg/ml) ([2]; Water): 0.145 mg/mL | Solubility conc.(mg/ml) ([2]; pH 4.5 Acetate Buffer (USP)): 0.012 mg/mL | Solubility conc.(mg/ml) ([2]; pH 6.8 Phosphate Buffer (USP)): 0.014 mg/mL | Final pH ([2]; 0.1N HCL): 1.56 | Final pH ([2]; FaSSIF): 6.04 | Final pH ([2]; FeSSIF): 4.87 | Final pH ([2]; SGF): 1.55 | Final pH ([2]; Water): 2.71 | Final pH ([2]; pH 4.5 Acetate Buffer (USP)): 4.42 | Final pH ([2]; pH 6.8 Phosphate Buffer (USP)): 6.64 | Remaining % ([3]; 25° C., 0.1N HCL, 0 h, 50 μg/mL, 40% MeOH): 100.00% | Remaining % ([3]; 25° C., 0.1N HCL, 3 h, 50 μg/mL, 40% MeOH): 100.31% | Remaining % ([3]; 25° C., 0.1N HCL, 24 h, 50 μg/mL, 40% MeOH): 100.62% | Solution stability ([3]; 25° C., 24 h, 0.1 N HCl, pH 4.5 buffer and pH 6.8 buffer): stable | Remaining % ([3]; 25° C., pH 4.5, 0 h, 50 μg/mL, 40% MeOH): 100.00% | Remaining % ([3]; 25° C., pH 4.5, 3 h, 50 μg/mL, 40% MeOH): 100.00% | Remaining % ([3]; 25° C., pH 4.5, 24 h, 50 μg/mL, 40% MeOH): 100.08% | Remaining % ([3]; 25° C., pH 6.8*, 0 h, final conc. 25 μg/mL with 40% DMSO): 100.00% | Remaining % ([3]; 25° C., pH 6.8*, 3 h, final conc. 25 μg/mL with 40% DMSO): 99.64% | Remaining % ([3]; 25° C., pH 6.8*, 24 h, final conc. 25 μg/mL with 40% DMSO): 99.64% | Remaining % ([3]; 37° C., 0.1N HCL, 0 h, 50 μg/mL, 40% MeOH): 100.00% | Remaining % ([3]; 37° C., 0.1N HCL, 3 h, 50 μg/mL, 40% MeOH): 99.92% | Remaining % ([3]; 37° C., 0.1N HCL, 24 h, 50 μg/mL, 40% MeOH): 100.92% | Solution stability ([3]; 37° C., 24 h, 0.1N HCl, pH 4.5 buffer): stable | Solution stability ([3]; 37° C., 24 h, pH 6.8 buffer): decomposed | Remaining % ([3]; 37° C., pH 4.5, 0 h, 50 μg/mL, 40% MeOH): 100.00% | Remaining % ([3]; 37° C., pH 4.5, 3 h, 50 μg/mL, 40% MeOH): 100.39% | Remaining % ([3]; 37° C., pH 4.5, 24 h, 50 μg/mL, 40% MeOH): 100.47% | Remaining % ([3]; 37° C., pH 6.8*, 0 h, final conc. 25 μg/mL with 40% DMSO): 100.00% | Remaining % ([3]; 37° C., pH 6.8*, 3 h, final conc. 25 μg/mL with 40% DMSO): 99.22% | Remaining % ([3]; 37° C., pH 6.8*, 24 h, final conc. 25 μg/mL with 40% DMSO): 85.89% | Solid-state stability (HPLC) ([4]; 40° C./0% RH (closed) and 40° C./75% RH (open), dark, up to 3 weeks): substantially stable | 0 day % remaining ([4]; 40° C. (0% RH, closed)): 100.0% | 7 day % remaining ([4]; 40° C. (0% RH, closed)): 99.1% | 21 day % remaining ([4]; 40° C. (0% RH, closed)): 99.2% | 0 day % remaining ([4]; 40° C./75% RH (open)): 100.0% | 7 day % remaining ([4]; 40° C./75% RH (open)): 100.3% | 21 day % remaining ([4]; 40° C./75% RH (open)): 99.8%
SMILES: COc1ccc2c(c1)CCN1Cc3c(ccc(OC)c3OS(=O)(=O)c3cccc(F)c3)C[C@@H]21 [Compound 3b]
